# The source made the active and inactive calls. The rule behind the calls is not given here.
# Experiments:
# [1] = tested on: Mus musculus; assay: Anti-inflammatory activity against MOG35-55-induced experimental autoimmune encephalomyelitis C57BL/6 mouse model assessed as fold change in TGFB1 gene expression in brain at 0.3 mg/kg/day, ig for 14 days starting from 12th day of immunization by RT-qPCR analysis relative to control; format: functional; details: time 14 day
# [2] = tested on: Mus musculus; assay: Anti-inflammatory activity against MOG35-55-induced experimental autoimmune encephalomyelitis C57BL/6 mouse model assessed as fold change in IL6 gene expression in brain at 0.15 mg/kg/day, ig for 14 days starting from 12th day of immunization by RT-qPCR analysis relative to control; format: functional; details: time 14 day
# [3] = tested on: Mus musculus; assay: Anti-inflammatory activity against MOG35-55-induced experimental autoimmune encephalomyelitis C57BL/6 mouse model assessed as fold change in H2EB1 (HLA-DRB1) gene expression in brain at 0.15 mg/kg/day, ig for 14 days starting from 12th day of immunization by RT-qPCR analysis relative to control; format: functional; details: time 14 day
# [4] = tested on: Mus musculus; assay: Anti-inflammatory activity against MOG35-55-induced experimental autoimmune encephalomyelitis C57BL/6 mouse model assessed as reduction in serum chemokines level by measuring reduction in CCL5 level at 0.3 mg/kg/day, ig for 14 days starting from 12th day of immunization by ELISA; format: functional, organism-based; details: time 14.0 day
# [5] = tested on: Mus musculus; assay: Anti-inflammatory activity against MOG35-55-induced experimental autoimmune encephalomyelitis C57BL/6 mouse model assessed as methylation of CpG sites of CXCL14 gene promoter in brain at […], ig for 14 days starting from 12th day of immunization by PCR analysis (reference value: 46.5 +/-6%); format: functional; details: time 14 day
# [6] = tested on: Mus musculus; assay: Anti-inflammatory activity against MOG35-55-induced experimental autoimmune encephalomyelitis C57BL/6 mouse model assessed as reduction in serum Th1 cytokine level by measuring reduction in IL-2 level at 600 mg/kg/day, ig for 14 days starting from 12th day of immunization by ELISA; format: functional, organism-based; details: time 14.0 day
# [7] = tested on: Mus musculus; assay: Anti-inflammatory activity against MOG35-55-induced experimental autoimmune encephalomyelitis C57BL/6 mouse model assessed as fold change in C1S gene expression in brain at 300 mg/kg/day, ig for 14 days starting from 12th day of immunization by RT-qPCR analysis relative to control; format: functional; details: time 14 day
# [8] = tested on: Mus musculus; assay: Anti-inflammatory activity against MOG35-55-induced experimental autoimmune encephalomyelitis C57BL/6 mouse model assessed as reduction in serum chemokines level by measuring reduction in FASL level at 600 mg/kg/day, ig for 14 days starting from 12th day of immunization by ELISA; format: functional, organism-based; details: time 14.0 day
# [9] = tested on: Mus musculus; assay: Anti-inflammatory activity against MOG35-55-induced experimental autoimmune encephalomyelitis C57BL/6 mouse model assessed as methylation of CpG sites of IL18 gene promoter in brain at 600 mg/kg, ig for 14 days starting from 12th day of immunization by PCR analysis (reference value: 29.2 +/-8%); format: functional; details: time 14 day
# [10] = tested on: Mus musculus; assay: Anti-inflammatory activity against MOG35-55-induced experimental autoimmune encephalomyelitis C57BL/6 mouse model assessed as methylation of CpG sites of CXCL14 gene promoter in brain at 600 mg/kg, ig for 14 days starting from 12th day of immunization by PCR analysis (reference value: 46.5 +/-6%); format: functional; details: time 14 day
# [11] = tested on: Mus musculus; assay: Anti-inflammatory activity against MOG35-55-induced experimental autoimmune encephalomyelitis C57BL/6 mouse model assessed as upregulation of MBP protein expression in brain at 300 to 600 mg/kg/day, ig for 14 days starting from 12th day of immunization by western blot analysis relative to control; format: functional; details: dose 300-600 mg/kg/day, time 14 day
# [12] = tested on: Mus musculus; assay: Anti-inflammatory activity against MOG35-55-induced experimental autoimmune encephalomyelitis C57BL/6 mouse model assessed as fold change in BCL2 gene expression in brain at 300 mg/kg/day, ig for 14 days starting from 12th day of immunization by RT-qPCR analysis relative to control; format: functional; details: time 14 day
# [13] = tested on: Mus musculus; assay: Anti-inflammatory activity against MOG35-55-induced experimental autoimmune encephalomyelitis C57BL/6 mouse model assessed as fold change in IL6 gene expression in brain at 600 mg/kg/day, ig for 14 days starting from 12th day of immunization by RT-qPCR analysis relative to control; format: functional; details: time 14 day
# [14] = tested on: Mus musculus; assay: Anti-inflammatory activity against MOG35-55-induced experimental autoimmune encephalomyelitis C57BL/6 mouse model assessed as fold change in MMP9 gene expression in brain at 300 mg/kg/day, ig for 14 days starting from 12th day of immunization by RT-qPCR analysis relative to control; format: functional; details: time 14 day
# [15] = tested on: Mus musculus; assay: Anti-inflammatory activity against MOG35-55-induced experimental autoimmune encephalomyelitis C57BL/6 mouse model assessed as fold change in YWHAH gene expression in brain at 300 mg/kg/day, ig for 14 days starting from 12th day of immunization by RT-qPCR analysis relative to control; format: functional; details: time 14 day
# [16] = tested on: Mus musculus; assay: Anti-inflammatory activity against MOG35-55-induced experimental autoimmune encephalomyelitis C57BL/6 mouse model assessed as fold change in CXCL9 gene expression in brain at 600 mg/kg/day, ig for 14 days starting from 12th day of immunization by RT-qPCR analysis relative to control; format: functional; details: time 14 day
# [17] = tested on: Mus musculus; assay: Anti-inflammatory activity against MOG35-55-induced experimental autoimmune encephalomyelitis C57BL/6 mouse model assessed as increase in brain IL-10 level at 600 mg/kg/day, ig for 14 days starting from 12th day of immunization by ELISA; format: functional, organism-based; details: time 14.0 day
# [18] = tested on: Mus musculus; assay: Anti-inflammatory activity against MOG35-55-induced experimental autoimmune encephalomyelitis C57BL/6 mouse model assessed as fold change in NFKB gene expression in brain at 600 mg/kg/day, ig for 14 days starting from 12th day of immunization by RT-qPCR analysis relative to control; format: functional; details: time 14 day
# [19] = tested on: Mus musculus; assay: Anti-inflammatory activity against MOG35-55-induced experimental autoimmune encephalomyelitis C57BL/6 mouse model assessed as fold change in CCL5 gene expression in brain at 600 mg/kg/day, ig for 14 days starting from 12th day of immunization by RT-qPCR analysis relative to control; format: functional; details: time 14 day
# [20] = tested on: Mus musculus; assay: Anti-inflammatory activity against MOG35-55-induced experimental autoimmune encephalomyelitis C57BL/6 mouse model assessed as fold change in MBP gene expression in brain at 300 mg/kg/day, ig for 14 days starting from 12th day of immunization by RT-qPCR analysis relative to control; format: functional; details: time 14 day
# [21] = tested on: Mus musculus; assay: Anti-inflammatory activity against MOG35-55-induced experimental autoimmune encephalomyelitis C57BL/6 mouse model assessed as fold change in MAG gene expression in brain at 300 mg/kg/day, ig for 14 days starting from 12th day of immunization by RT-qPCR analysis relative to control; format: functional; details: time 14 day
# [22] = tested on: Mus musculus; assay: Anti-inflammatory activity against MOG35-55-induced experimental autoimmune encephalomyelitis C57BL/6 mouse model assessed as reduction in IL-6 protein expression in brain at 300 to 600 mg/kg/day, ig for 14 days starting from 12th day of immunization by western blot analysis; format: functional, organism-based; details: dose 300-600 mg/kg/day, time 14.0 day
# [23] = tested on: Mus musculus; assay: Anti-inflammatory activity against MOG35-55-induced experimental autoimmune encephalomyelitis C57BL/6 mouse model assessed as reduction in APP protein expression in brain at 300 to 600 mg/kg/day, ig for 14 days starting from 12th day of immunization by western blot analysis relative to control; format: functional; details: dose 300-600 mg/kg/day, time 14 day
smiles,measurement,setting,value
CCCCCCCCc1ccc(CCC(N)(CO)CO)cc1 [FINGOLIMOD],fold change (FC),[1],10.7
same,fold change (FC),[2],4.34
same,fold change (FC),[3],3.85
same,Activity,[4],Active
same,Activity,[5],73.6%
CCCCCCCCCCCCCCCCCCCCCCCCC(=O)O[C@H]1CC[C@]2(C)[C@H]3CC=C4[C@@H]5CC(C)(C)CC[C@]5(CO)CC[C@@]4(C)[C@]3(C)CC[C@H]2C1(C)C,Activity,[6],Active
same,fold change (FC),[7],1.63
same,Activity,[8],Active
same,Activity,[9],40.5%
same,Activity,[10],65.3%
same,fold change (FC),[11],2
same,fold change (FC),[12],1.76
same,fold change (FC),[13],-2.32
same,fold change (FC),[14],1.42
same,fold change (FC),[15],-1.38
same,fold change (FC),[16],-1.14
same,Activity,[17],Active
same,fold change (FC),[18],1.46
same,fold change (FC),[19],1.27
same,fold change (FC),[20],1.01
same,fold change (FC),[21],1.54
same,Activity,[22],Active
same,fold change (FC),[23],2

# Source: ChEMBL document CHEMBL5226375, “Synthesis and Comprehensive in Vivo Activity Profiling of Olean-12-en-28-ol, 3β-Pentacosanoate in Experimental Autoimmune Encephalomyelitis: A Natural Remyelinating and Anti-Inflammatory Agent” (J Nat Prod, 2023)
